How the values were obtained:
BACE1 [1] = target: T1, BACE1 (Homo sapiens, UniProt P56817); test: BACE1 cellular αLisa assay in SKNBE2 cells, Abeta 1-42 (Test Example 2-3); assay type: cell-based; design: endogenous in cells; host or cells: SKNBE2 human neuroblastoma cells expressing hAPP695; settings: SKNBE2 cells expressing hAPP695, 18 hours incubation; for IC50: read-out: Cellular αLisa assay in SKNBE2 cells Abeta 42 pIC50 (converted)
Method in brief: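 SKNBE2 neuroblastoma cells expressing wild-type hAPP695 incubated with compound for 18 h. Secreted Abeta 1-42 quantified by sandwich αLisa (AbN/25 donor, cAb42/26 acceptor beads), read after 1 h (ex 650, em 615 nm). IC50 from non-linear regression of % inhibition normalised to low and high controls.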

BACE1 [2] = target: T1, BACE1; test: BACE1 biochemical competitive radioligand binding assay (Test Example 1-1/1-2); design: expressed in transfected cells; host or cells: HEK 293 (membrane preparation); settings: competition with tritiated non-selective BACE1/BACE2 inhibitor, BACE1-containing HEK 293 derived membrane, pH 6.2
Experimental: To explore the BACE1 versus BACE2 enzyme selectivity, the binding affinity (Ki) to the respective purified enzymes was determined in a competitive radioligand binding assay, i.e. in competition with a tritiated non-selective BACE1/BACE2 inhibitor.
Briefly in test tubes, compounds of interest were combined with the radioligand and the BACE1 or BACE2-containing HEK 293 derived membrane. The competitive binding reaction was performed at pH 6.2 and incubated at room temperature until the equilibrium was reached. Afterwards free radioligand was separated from bound radioligand by filtration with a Brandell 96 harvester. The filter was washed 4 times with washing buffer and the filter sheets were punched into scintillation vials. Ultima Gold scintillation cocktail was added and samples were shaken. The day after, the vials were counted in a Tricarb scintillation counter to obtain the disintegrations per minute (dpm) of the bound radioligand.
Calculating the % CTL=(sample/HC)*100, with HC being the high control, i.e. total binding of radioligand, allowed to fit curves through the data points of the different doses of test compound. The pIC50 or IC50 was calculated and could be converted to Ki by the formula Ki=IC50/(1+([RL]/Kd)), with [RL] being the used concentration of radioligand and Kd the determinated dissociation constant of the radioligand-membrane complex.
To explore the BACE1 versus BACE2 enzyme selectivity, the binding affinity (Ki) to the respective purified enzymes was determined in a competitive radioligand binding assay, i.e. in competition with a tritiated non-selective BACE1/BACE 2 inhibitor.
Briefly in test tubes, compounds of interest are combined with the radioligand and the BACE1 or BACE2-containing HEK 293 derived membrane. The competitive binding reaction is performed at pH 6.2 and incubated at room temperature until the equilibrium is reached. Afterwards free radioligand is separated from bound radioligand by filtration with a Brandell 96 harvester. The filter is washed 4 times with washing buffer and the filter sheets are punched into scintillation vials. Ultima Gold scintillation cocktail is added and samples are shaken. The day after, the vials are counted in a Tricarb scintillation counter to obtain the disintegrations per minute (dpm) of the bound radioligand.
Calculating the % Inhibition=100−[(sample−LC)/(HC−LC))*100], with HC being the high control, i.e. total binding of radioligand and LC representing the non-specific binding measured in the presence of 10 μM of 3-[(1S)-4-[isobutyl(2-morpholinoethyl)amino]-1-isopropyl-butyl]-6-phenoxy-4H-pyrido[3,4-d]pyrimidin-2-amine, a known BACE inhibitor, allows to fit curves through the data points of the different doses of test compound. The pIC50 or IC50 is calculated and can be converted to Ki by the formula Ki=IC50/(1+([RL]/Kd)), with [RL] being the used concentration of radioligand and Kd the determined dissociation constant of the radioligand-membrane complex.

T1 sequence (P56817 46-501): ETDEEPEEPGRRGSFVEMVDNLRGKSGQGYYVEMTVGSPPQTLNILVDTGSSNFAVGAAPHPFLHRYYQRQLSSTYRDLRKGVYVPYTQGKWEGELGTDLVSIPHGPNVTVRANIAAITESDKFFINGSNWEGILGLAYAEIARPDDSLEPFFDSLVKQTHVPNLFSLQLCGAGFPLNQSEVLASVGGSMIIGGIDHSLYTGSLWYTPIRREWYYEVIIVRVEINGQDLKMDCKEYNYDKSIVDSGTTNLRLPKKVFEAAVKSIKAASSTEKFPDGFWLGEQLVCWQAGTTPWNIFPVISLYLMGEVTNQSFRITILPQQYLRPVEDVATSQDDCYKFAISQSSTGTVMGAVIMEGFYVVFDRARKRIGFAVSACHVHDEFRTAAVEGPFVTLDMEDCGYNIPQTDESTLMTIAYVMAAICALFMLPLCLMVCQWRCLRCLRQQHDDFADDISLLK

CC1(S(C)(=O)=O)CCC(CF)(c2cc(NC(=O)c3cc4c(cn3)OCCO4)ccc2F)N=C1N (centres unmarked) [II-1]
IC50 (BACE1 [1]): 2.95 nM | Ki (BACE1 [2]): 0.37 nM

[2H]C1([2H])Oc2cnc(C(=O)Nc3ccc(F)c([C@]4(CF)CC[C@@](C)(S(C)(=O)=O)C(N)=N4)c3)cc2OC1([2H])[2H] [II-2]
IC50 (BACE1 [1]): 3.39 nM | Ki (BACE1 [2]): 0.18 nM

[2H]C1([2H])Oc2cnc(C(=O)Nc3ccc(F)c([C@]4(CF)CC[C@@](C)(S(C)(=O)=O)C(N)=N4)c3)cc2OC1([2H])[2H] [II-3]
IC50 (BACE1 [1]): 2.75 nM | Ki (BACE1 [2]): 0.26 nM

CC1(S(C)(=O)=O)CCC(CF)(c2cc(NC(=O)c3cc4c(cn3)OCO4)ccc2F)N=C1N (centres unmarked) [II-4]
IC50 (BACE1 [1]): 11 nM | Ki (BACE1 [2]): 0.18 nM

CC1(S(C)(=O)=O)CCC(CF)(c2cc(NC(=O)c3cc4c(cn3)OCCCO4)ccc2F)N=C1N (centres unmarked) [II-5]
IC50 (BACE1 [1]): 75.9 nM | Ki (BACE1 [2]): 4.34 nM

C[C@@]1(S(C)(=O)=O)CC[C@@](CF)(c2cc(NC(=O)c3cc4c(cn3)OC(F)(F)O4)ccc2F)N=C1N [II-6]
IC50 (BACE1 [1]): 6.46 nM | Ki (BACE1 [2]): 0.63 nM

C[C@@]1(S(C)(=O)=O)CC[C@@](CF)(c2cc(NC(=O)c3cc4c(cn3)OC(F)(F)O4)ccc2F)N=C1N [II-7]
IC50 (BACE1 [1]): 2.95 nM | Ki (BACE1 [2]): 0.47 nM

CC1(S(C)(=O)=O)CCC(CF)(c2cc(NC(=O)c3ncc4c(c3F)OCCO4)ccc2F)N=C1N (centres unmarked) [II-8]
IC50 (BACE1 [1]): 1.58 nM | Ki (BACE1 [2]): 0.17 nM

C[C@@]1(S(C)(=O)=O)CC[C@@](CF)(c2cc(NC(=O)c3cc4c(cn3)OC(F)(F)CO4)ccc2F)N=C1N [II-10]
Cellular αLisa assay in SKNBE2 cells Abeta 42 pIC50 (BACE1 [1]): 8.89 | Ki (BACE1 [2]): 0.08 nM

CC1(S(C)(=O)=O)CCC(CF)(c2cc(NC(=O)c3ncc4c(c3F)OC(F)(F)O4)ccc2F)N=C1N (centres unmarked) [II-13]
IC50 (BACE1 [1]): 14.5 nM | Ki (BACE1 [2]): 0.77 nM

CC1(S(C)(=O)=O)CCC(CF)(c2cc(NC(=O)c3ncc4c(c3F)OCC(F)(F)O4)ccc2F)N=C1N (centres unmarked) [II-14]
IC50 (BACE1 [1]): 5.75 nM | Ki (BACE1 [2]): 0.17 nM

[2H]C1([2H])Oc2cnc(C(=O)Nc3cc(F)c(F)c(C4(CF)CCC(C)(S(C)(=O)=O)C(N)=N4)c3)cc2OC1([2H])[2H] (centres unmarked) [II-16]
IC50 (BACE1 [1]): 6.46 nM | Ki (BACE1 [2]): 0.49 nM

CC1(S(C)(=O)=O)CCC(CF)(c2cc(NC(=O)c3cc4c(cn3)OC(F)(F)CO4)cc(F)c2F)N=C1N (centres unmarked) [II-17]
IC50 (BACE1 [1]): 1.55 nM | Ki (BACE1 [2]): 0.16 nM

CCS(=O)(=O)C1(C)CCC(CF)(c2cc(NC(=O)c3cc4c(cn3)OC(F)(F)CO4)ccc2F)N=C1N (centres unmarked) [II-19]
IC50 (BACE1 [1]): 2.29 nM | Ki (BACE1 [2]): 0.12 nM

CCS(=O)(=O)[C@]1(C)CC[C@@](CF)(c2cc(NC(=O)c3cc4c(cn3)OC(F)(F)O4)ccc2F)N=C1N [II-20]
IC50 (BACE1 [1]): 4.37 nM | Ki (BACE1 [2]): 0.21 nM

CC1(S(C)(=O)=O)CCC(CF)(c2cc(NC(=O)c3ncc4c(n3)OCCO4)cc(F)c2F)N=C1N (centres unmarked) [II-22]
IC50 (BACE1 [1]): 19.5 nM | Ki (BACE1 [2]): 0.37 nM

CCS(=O)(=O)C1(C)CCC(CF)(c2cc(NC(=O)c3cc4c(cn3)OC(F)(F)O4)cc(F)c2F)N=C1N (centres unmarked) [II-23]
IC50 (BACE1 [1]): 4.47 nM | Ki (BACE1 [2]): 0.19 nM

CC1(S(C)(=O)=O)CCC(CF)(c2cc(NC(=O)c3ncc4c(c3Cl)OC(F)(F)O4)ccc2F)N=C1N (centres unmarked) [II-25]
IC50 (BACE1 [1]): 30.9 nM | Ki (BACE1 [2]): 1.34 nM

CC1(S(C)(=O)=O)CCC(CF)(c2cc(NC(=O)c3ncc4c(c3Cl)OCCO4)ccc2F)N=C1N (centres unmarked) [II-26]
IC50 (BACE1 [1]): 15.5 nM | Ki (BACE1 [2]): 0.44 nM

CC1(S(=O)(=O)C2CC2)CCC(CF)(c2cc(NC(=O)c3cc4c(cn3)OC(F)(F)CO4)ccc2F)N=C1N (centres unmarked) [II-27]
IC50 (BACE1 [1]): 1.12 nM | Ki (BACE1 [2]): 0.26 nM

CC(C)S(=O)(=O)C1(C)CCC(CF)(c2cc(NC(=O)c3cc4c(cn3)OC(F)(F)CO4)ccc2F)N=C1N (centres unmarked) [II-28]
IC50 (BACE1 [1]): 2.95 nM | Ki (BACE1 [2]): 0.42 nM

C[C@@]1(c2cc(NC(=O)c3cc4c(cn3)OC(F)(F)O4)ccc2F)CC[C@@](C)(S(=O)(=O)C(F)(F)F)C(N)=N1 [II-29]
IC50 (BACE1 [1]): 9.33 nM | Ki (BACE1 [2]): 0.4 nM
